Consider six compounds from ChEMBL document CHEMBL1146610, “Improved gelatinase a selectivity by novel zinc binding groups containing galardin derivatives” (Bioorg Med Chem Lett, 2003).

The target in assay [1] is 72 kDa type IV collagenase (Homo sapiens, UniProt P08253). The assay can be described thus: Inhibition of Matrix metalloprotease-2.
In assay [2] the target is T1, Interstitial collagenase (Homo sapiens, UniProt P03956).
T1 sequence (P03956 whole entry): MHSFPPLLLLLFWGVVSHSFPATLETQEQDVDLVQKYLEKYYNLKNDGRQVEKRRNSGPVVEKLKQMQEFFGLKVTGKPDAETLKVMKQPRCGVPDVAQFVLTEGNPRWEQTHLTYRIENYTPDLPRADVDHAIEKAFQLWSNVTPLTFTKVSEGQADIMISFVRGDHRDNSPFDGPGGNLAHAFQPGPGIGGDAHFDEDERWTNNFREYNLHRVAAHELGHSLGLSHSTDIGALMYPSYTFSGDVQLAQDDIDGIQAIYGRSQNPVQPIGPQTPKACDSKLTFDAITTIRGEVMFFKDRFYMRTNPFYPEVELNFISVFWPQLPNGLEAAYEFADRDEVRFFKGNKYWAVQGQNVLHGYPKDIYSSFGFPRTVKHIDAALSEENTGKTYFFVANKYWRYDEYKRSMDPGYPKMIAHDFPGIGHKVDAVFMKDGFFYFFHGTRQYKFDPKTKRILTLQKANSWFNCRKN
As to the kind of experiment: Inhibition of matrix metalloprotease-1.

The term IC50 denotes the concentration needed to halve the response being measured. Read a high IC50 as a need for much substance.

Sequence of 72 kDa type IV collagenase (P08253 whole entry): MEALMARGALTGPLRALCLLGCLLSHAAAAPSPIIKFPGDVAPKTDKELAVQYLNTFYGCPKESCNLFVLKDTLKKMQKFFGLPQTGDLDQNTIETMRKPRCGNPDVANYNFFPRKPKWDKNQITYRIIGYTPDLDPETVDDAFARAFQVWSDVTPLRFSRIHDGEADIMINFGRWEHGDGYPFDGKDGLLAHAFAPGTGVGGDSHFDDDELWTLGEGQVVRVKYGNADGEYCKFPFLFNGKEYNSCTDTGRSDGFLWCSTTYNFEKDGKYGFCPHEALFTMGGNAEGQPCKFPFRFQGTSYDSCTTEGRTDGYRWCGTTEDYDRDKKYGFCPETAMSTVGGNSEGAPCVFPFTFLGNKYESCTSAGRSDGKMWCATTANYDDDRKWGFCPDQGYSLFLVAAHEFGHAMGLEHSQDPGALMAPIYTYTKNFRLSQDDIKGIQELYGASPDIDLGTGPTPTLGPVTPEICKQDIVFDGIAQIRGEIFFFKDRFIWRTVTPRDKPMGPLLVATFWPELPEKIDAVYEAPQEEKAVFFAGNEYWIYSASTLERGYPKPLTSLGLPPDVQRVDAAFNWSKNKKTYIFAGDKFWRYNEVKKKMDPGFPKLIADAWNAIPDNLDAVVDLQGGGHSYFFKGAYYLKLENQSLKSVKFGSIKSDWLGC

In the case of `CNC(=O)C(Cc1c[nH]c2ccccc12)NC(=O)[C@@H](CC(=O)NNS(=O)(=O)c1ccc(C)cc1)CC(C)C` (stereo partly specified), the 50% inhibitory concentration (IC50) was 30 nM in assay [1] and > 10000 nM in assay [2]. Consider `CNC(=O)C(Cc1c[nH]c2ccccc12)NC(=O)[C@@H](CC(=O)O)CC(C)C` (stereo partly specified), for which the midpoint of inhibition in assay [1], the IC50, lay at 20 nM. In other words, the double-digit nanomolar range. As to `CNC(=O)C(Cc1c[nH]c2ccccc12)NC(=O)[C@@H](CC(=O)NN)CC(C)C` (stereo partly specified), the half-inhibitory concentration (IC50) in assay [1] came out at 550 nM; in assay [2], 50 nM. On the same counts, the results for `CNC(=O)[C@H](Cc1c[nH]c2ccccc12)NC(=O)[C@@H](CC(=O)c1ccc[nH]1)CC(C)C` are 540 nM and 860 nM. `CNC(=O)C(Cc1c[nH]c2ccccc12)NC(=O)[C@@H](CC(=O)Nc1ccccn1)CC(C)C` (stereo partly specified): the IC50 in assay [1] is 50 nM; in assay [2], 60 nM. For `CNC(=O)[C@H](Cc1c[nH]c2ccccc12)NC(=O)[C@@H](CC(=O)c1ccccn1)CC(C)C`, the IC50 in assay [1] is 180 nM; in assay [2], 730 nM.
